In patent US7534769B2, “Compositions and methods for enhancing delivery of therapeutic agents to cells” (Canji, Inc., priority 1996, dated 2009):
Entries after “also recorded” stand apart in the source; their conditions may differ.

How the values were obtained:
bladder epithelium [1] = test: rAd-βgal gene transfer to bladder epithelium in detergent formulations, Xgal staining score and gross pathology; conditions: detergents at their critical micellization concentration
Description: rAd-βgal was formulated in different detergents at their critical micellization concentration to evaluate efficiency of gene transfer to the bladder epithelium. Female rats (about 200 g b/w, Harlan Sprague Dawley) were anesthetized with isoflurane and received a single intravesical administration of rAd-βgal (1×10^11 PN/ml) in different detergent formulations (see Table I). Before instillation, bladders were flushed with PBS and then emptied. rAd-βgal was then instilled in a volume of 0.5 ml. The instilled solution was retained in the bladder for 45 minutes. The bladders were then flushed with PBS, and the animals were permitted to recover from the procedure. 48 hours after administration, the rats were sacrificed, the bladders harvested, and fixed in formalin. After fixation, the bladders were opened longitudinally so that the urothelium was exposed to the chromogen (Xgal), that is converted to a blue color, if reporter gene (β-galactosidase) expression is present. The luminal epithelial surface of the whole bladder was photographed an blue staining scored: + (minimal staining), ++ (moderate staining), +++ intense staining covering the whole bladder epithelial surface.
Briefly, in anaesthetized female rats rAd-βgal (1×10^11 PN/ml) was administered into the bladder via an intravesical catheter. rAd-βgal was formulated in different concentrations of Big CHAP (CALBIOCHEM®). A volume of 0.5 ml was injected and remained instilled in the bladder for 45 minutes. The animals were sacrificed 48 hours later, the bladder fixed in 4% formalin/glutaraldehyde, opened longitudinally, and the β-galactosidase enzyme activity measured using Xgal substrate. The intensity of blue staining correlates with the βgal-transgene expression.
Effects of higher recombinant adenovirus concentrations were also tested. Briefly, in anaesthetized female rats different concentrations of rAd-βgal, formulated in 7 mM Big CHAP (CALBIOCHEM®) were administered into the bladder via an intravesical catheter. The animals were sacrificed 48 hours later, the bladder fixed in 4% formalin/glutaraldehyde, opened longitudinally, and Xgal stained.

bladder epithelium [2] = test: Effect of Big CHAP sources, purified Big CHAP and impurities on rAd-βgal gene transfer to bladder epithelium; format: in vivo, rat; conditions: for gene transfer and expression: column chromatography purified BC, 30 mg/ml; for rAd mediated gene transfer and expression: Big CHAP at 6 mg/ml; for epithelial gene expression: increasing concentrations of BC (Sigma), 20 mg/ml; for cystitis / bladder irritation: Impurity I
Description: Alternate commercial sources of Big CHAP (BC) were tested for the ability to enhance rAd (recombinant adenovirus) mediated gene transfer and expression, essentially according to the method described above in Example 8.
The results are depicted in FIG. 17.
rAd-βgal was formulated in 30 mg/ml of the column chromatography purified material of both BCs and gene transfer to the bladder epithelium tested as described above.
Three impurities of BC (CALBIOCHEM®) were detected by TLC (FIG. 15) and isolated by column chromatography for gene transfer studies. Impurity I and a mixture of impurity II and impurity III were diluted in VPBS (0.6 mg/ml or 6 mg/ml) to test their efficiency in improving rAd mediated gene transfer to the bladder epithelium. […] Positive control formulation (BC, CALBIOCHEM®, upper panel, left), and the negative control formulations (BC—CALBIOCHEM®, column chromatography purified and BC—Sigma) were used at a concentration of 6 mg/ml (upper panel, right).
In this experiment, 10 mg/ml of BC (Sigma, FIG. 20 upper middle panel) was reconstituted with Impurity III (upper right panel), impurity II (lower left panel), or synthesized analog of impurity III (lower right panel). rAd-βgal, 1×10^11 PN/ml, was prepared in the spiked formulations and administered intravesically as described above.
Calbiochem Big CHAP was fractionated by column chromatography to obtain essentially pure impurities “1”, “2”, and “3” for biological testing as well as structural analysis.

[3] = Solubility and dissolution behaviour; format: physicochemical
bladder = test: Gene transfer activity of water-soluble Syn3 analogs in vivo, whole organ Xgal staining; set-up: species or system rat; conditions: for gene transfer activity compared to controls: 1 mg/ml
Description: A concentration of 1 mg/ml was chosen for initial testing of both compounds.
The solution of A-TMA was prepared by dissoluting 10 mg of A-TMA into 10 ml Dulbecco's PBS. Glycerol was added to provide a final concentration of 10 mg/ml. All solutions were sterile filtered prior to use (0.2 μm Acrodisc syring filter). The virus (BGCG 70AAB) was diluted 1:10 into either this A-TMA solution, or into Dulbecco's PBS-glycerol prior to administration.
Ten mg of A-HCl was dissoluted into this buffer and sterile filtered prior to use (0.2 μm Acrodisc suring filter). The virus (BGCG 70AAB) was diluted 1:10 into this solution prior to administration. For comparison, the virus diluted into this buffer without A-HCl was also tested.
Female HSD rats were anesthetized using isofluorane. The rats were transuretherally catheterized into the bladder using PE50 tubing lubricated with K-Y jelly. A tie-off was installed on the external urethra to prevent back leakage. Urine, if any, was removed and the bladder was flushed with 0.5 ml PBS and emptied. rAd was diluted to the desired concentration (1:10) and instilled for 45 minutes. The dosing material was removed, noting the return volume. The bladder was flushed with 0.5 ml PBS and emptied. The tie-off and catheter were removed, and the animals were allowed to recover in cages.
After 48 hours, the animals were sacrificed and their bladders inflation fixed with 0.5 ml fixative for 1 hour. The bladders were then rinsed overnight and whole organ Xgal staining was conducted.

For CCCCCCCCCCCCCC[N+](C)(C)CCCS(=O)(=O)[O-] [Zwittergent ® 3-14, reference compound], the “gene transfer to the bladder epithelium (Table I)” value (“gene transfer … (Table I)” below) (bladder epithelium [1]) was “enhanced gene transfer dramatically”.
For C[C@H](CCC(=O)N(CCCNC(=O)[C@H](O)[C@@H](O)[C@H](O)[C@H](O)CO)CCCNC(=O)[C@H](O)[C@@H](O)[C@H](O)[C@H](O)CO)[C@H]1CC[C@H]2[C@@H]3[C@H](O)C[C@@H]4C[C@H](O)CC[C@]4(C)[C@H]3C[C@H](O)[C@]12C [purified Big CHAP (CALBIOCHEM®)], the “gene transfer and expression” value (bladder epithelium [2]) was “only slightly enhanced; also recorded: reduced ability to enhance gene transfer”.
For C[C@H](CCC(=O)N(CCCNC(=O)[C@H](O)[C@@H](O)[C@H](O)[C@H](O)CO)CCCNC(=O)[C@H](O)[C@@H](O)[C@H](O)[C@H](O)CO)[C@H]1CC[C@H]2[C@@H]3[C@H](O)C[C@@H]4C[C@H](O)CC[C@]4(C)[C@H]3C[C@H](O)[C@]12C [Big CHAP, N,N,bis-(3-D-gluconamidopropyl)-cholamide, reference compound], the “solubility in water / aqueous solutions (in words)” value [3] was “highly water soluble”.
For C[C@H](CCC(=O)N(CCCNC(=O)[C@H](O)[C@@H](O)[C@H](O)[C@H](O)CO)CCCNC(=O)[C@H](O)[C@@H](O)[C@H](O)[C@H](O)CO)[C@H]1CC[C@H]2[C@@H]3[C@H](O)C[C@@H]4C[C@H](O)CC[C@]4(C)[C@H]3C[C@H](O)[C@]12C [Big CHAP (Sigma), N,N,bis-(3-D-gluconamidopropyl)-cholamide], the gene transfer (bladder epithelium [2]; 26 mg/ml) was “found to enhance gene transfer”, the “rAd mediated gene transfer and expression” value (bladder epithelium [2]; listed as BC—Sigma) was “did not markedly improve rAd mediated gene transfer” and the “rAd mediated gene transfer and expression” value (bladder epithelium [2]; listed as Sigma Big CHAP) was “does not enhance gene transfer”. The epithelial gene expression (bladder epithelium [2]) was “enhanced gene transfer at higher concentrations” and the epithelial gene expression (bladder epithelium [2]; listed as Sigma BC) was “improved epithelial gene expression”.
For C[C@H](CCC(=O)N(CCCNC(=O)[C@H](O)[C@@H](O)[C@H](O)[C@H](O)CO)CCCNC(=O)[C@H](O)[C@@H](O)[C@H](O)[C@H](O)CO)[C@H]1CC[C@H]2[C@@H]3[C@H](O)C[C@@H]4C[C@H](O)CC[C@]4(C)[C@H]3C[C@H](O)[C@]12C [purified Big CHAP (Sigma)], the “gene transfer and expression” value (bladder epithelium [2]) was “reduced ability to enhance gene transfer” and the “gene transfer and expression” value (bladder epithelium [2]; listed as purified Sigma BC) was “without any effect”.
With COC(=O)CC[C@@H](C)[C@H]1CC[C@H]2[C@@H]3[C@H](O)C[C@@H]4C[C@H](O)CC[C@]4(C)[C@H]3C[C@H](O)[C@]12C [Impurity I] the “cystitis / bladder irritation” value (bladder epithelium [2]) was “caused cystitis”, the “cystitis / bladder irritation” value (bladder epithelium [2]; listed as Impurity 1) was “bladder irritation” and the “β-galactosidase gene expression in the bladder epithelium” value (bladder epithelium [2]; impurities diluted in VPBS, 0.6 mg/ml or 6 mg/ml) was “did not lead to increased β-galactosidase gene expression”.
In the case of C[C@H](CCC(=O)NCCCN(CCC[N+](C)(C)C)C(=O)CC[C@@H](C)[C@H]1CC[C@H]2[C@@H]3[C@H](O)C[C@@H]4C[C@H](O)CC[C@]4(C)[C@H]3C[C@H](O)[C@]12C)[C@H]1CC[C@H]2[C@@H]3[C@H](O)C[C@@H]4C[C@H](O)CC[C@]4(C)[C@H]3C[C@H](O)[C@]12C.[Cl-] [A-TMA], the “gene transfer activity compared to controls” value (bladder) is reported as “significantly above those levels obtained by controls” and the “gene transfer activity” value (bladder; individual animals, 1 mg/ml in PBS/1% Glycerol (A-TMA) or Buffer D (A-HCl)) is reported as “+ +”.
For Pluronic F68 [reference compound], the “gene transfer … (Table I)” value (bladder epithelium [1]) was “did not have similar effects”.
For C[C@H](CCC(=O)NCCCN(CCCN)C(=O)CC[C@@H](C)[C@H]1CC[C@H]2[C@@H]3[C@H](O)C[C@@H]4C[C@H](O)CC[C@]4(C)[C@H]3C[C@H](O)[C@]12C)[C@H]1CC[C@H]2[C@@H]3[C@H](O)C[C@@H]4C[C@H](O)CC[C@]4(C)[C@H]3C[C@H](O)[C@]12C.Cl [A-HCl], the solubility in saline [3] was “not completely soluble in saline”, the pH of solution ([3]; dissolution into dH2O) was 4.7 and the “gene transfer activity compared to controls” value (bladder) was “significantly above those levels obtained by controls”.
With C[C@H](CCC(=O)NCCS(=O)(=O)O)[C@H]1CC[C@H]2[C@@H]3CC[C@@H]4C[C@H](O)CC[C@]4(C)[C@H]3C[C@H](O)[C@]12C [Taurodeoxycholate, reference compound] the “gene transfer … (Table I)” value (bladder epithelium [1]) was “enhanced gene transfer dramatically”.
With C[C@H](CCC(=O)NCCC[N+](C)(C)CCCS(=O)(=O)[O-])[C@H]1CC[C@H]2[C@@H]3[C@H](O)C[C@@H]4C[C@H](O)CC[C@]4(C)[C@H]3C[C@H](O)[C@]12C.O [Chaps, 3-[(3-Cholamidopropyl)dimethylammoniol]-1-propanesulfonate hydrate, reference compound] the “gene transfer … (Table I)” value (bladder epithelium [1]) was “enhanced gene transfer dramatically”.
